This is an account of results in patent US11033539B2, “Compounds of formulas (VII), (VIII), (IX), (XI), (XII), (XIII), and (XIV) as muscarinic receptor 4(M4) antagonists for treating neurological diseases” (Neurocrine Biosciences, Inc., priority 2015, dated 2021).

One may read the Ki as a measure of affinity in units of concentration, obtained from inhibition or displacement.

Structures are written as SMILES.

For this assay, the target named is human M4 receptor (Homo sapiens (Human), UniProt P08173). Nature of the assay: Radioligand (tritiated N-methylscopolamine) binding assay, M4. The following applies: Ki against the M4 receptor; membranes from CHO cells expressing human M4; tritiated N-methylscopolamine 1.5 nM; read-out: Ki. In short, it runs like this: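 Membranes from CHO cells expressing the receptor were incubated with 1.5 nM radioligand and twelve compound concentrations (10 μM to […]) for 90 min at 37 °C in 50 mM HEPES, 100 mM NaCl, 5 mM MgCl2, 1 mM EDTA, pH 7.4. Bound radioligand was collected by filtration and counted, and Ki was derived from inhibition.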
Sequence of human M4 receptor (P08173 whole entry): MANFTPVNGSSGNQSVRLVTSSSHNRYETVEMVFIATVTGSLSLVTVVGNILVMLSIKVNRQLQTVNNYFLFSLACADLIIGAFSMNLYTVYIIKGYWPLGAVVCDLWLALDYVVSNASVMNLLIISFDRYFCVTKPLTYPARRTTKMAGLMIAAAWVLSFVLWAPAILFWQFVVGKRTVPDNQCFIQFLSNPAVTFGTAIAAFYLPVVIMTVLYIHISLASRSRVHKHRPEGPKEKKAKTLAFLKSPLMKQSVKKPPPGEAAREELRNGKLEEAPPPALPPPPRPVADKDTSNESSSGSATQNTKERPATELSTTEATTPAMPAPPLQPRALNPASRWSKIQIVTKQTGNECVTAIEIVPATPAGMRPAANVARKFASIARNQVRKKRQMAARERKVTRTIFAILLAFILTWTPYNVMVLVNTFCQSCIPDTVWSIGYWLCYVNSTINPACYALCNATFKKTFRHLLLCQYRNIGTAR

`Cc1c(C(=O)NCCC2CCN(Cc3ccccc3)CC2)cnc2cc(-c3cccc(C#N)c3)nn12` [18-8]: the inhibition constant (Ki) lay in the range of 10 to 100 nM.

Take `COc1ccccc1-c1cc2ncc(C(=O)NCCC3CCN(Cc4ccccc4)CC3)c(C)n2n1` [18-9]: the Ki was 10 to 100 nM.

As to `Cc1c(C(=O)NCCC2CCN(Cc3ccccc3)CC2)cnc2cc(-c3cc(F)ccc3F)nn12` [18-10], the Ki lay in the range of 10 to 100 nM.

Consider `Cc1c(C(=O)NCCC2CCN(Cc3ccccc3)CC2)cnc2cc(-c3ccccc3C(F)(F)F)nn12` [18-11], for which the Ki lay in the range of 10 to 100 nM.

For the compound `Cc1c(C(=O)NCCC2CCN(Cc3ccccc3)CC2)cnc2cc(-c3ccc(C#N)c(F)c3)nn12` [18-12], the Ki fell in the range of 10 to 100 nM.

On to `Cc1c(C(=O)NCCC2CCN(Cc3ccccc3)CC2)cnc2cc(-c3ccc(OC(F)(F)F)cc3)nn12` [18-13], for which the Ki is 10 to 100 nM.

`COc1ncccc1-c1cc2ncc(C(=O)NCCC3CCN(Cc4ccccc4)CC3)c(C)n2n1` [18-14]: the Ki lay in the range of 10 to 100 nM.

For the compound `Cc1c(C(=O)NCCC2CCN(Cc3ccccc3)CC2)cnc2cc(-c3ccc(F)nc3)nn12` [18-15], the Ki is 100 to 1000 nM.

As to `Cc1c(C(=O)NCCC2CCN(Cc3ccccc3)CC2)cnc2cc(-c3cccnc3F)nn12` [18-18], the inhibition constant (Ki) was 100 to 1000 nM.

For the compound `COc1cc(C)c(-c2cc3ncc(C(=O)NCCC4CCN(Cc5ccccc5)CC4)c(C)n3n2)cn1` [18-19], the Ki was in the range of 100 to 1000 nM.

Take `Cc1c(C(=O)NCCC2CCN(Cc3ccccc3)CC2)cnc2cc(-c3ccnc(F)c3)nn12` [18-20]: the inhibitory constant (Ki) fell in the range of 10 to 100 nM.

Regarding `Cc1c(C(=O)NCCC2CCN(Cc3cccnc3)CC2)cnc2cc(-c3cccc(C(F)(F)F)c3)nn12` [19-1, 7-methyl-N-{2-[1-(pyridin-3-ylmethyl)piperidin-4-yl]ethyl}-2-[3-(trifluoromethyl)phenyl]pyrazolo[1,5-a]pyrimidine-6-carboxamide], the Ki was 100 to 1000 nM.

In the case of `Cc1c(C(=O)NCCC2CCN(Cc3cccc4c3OCCO4)CC2)cnc2cc(-c3ccccc3)nn12` [19-2], the Ki is 10 to 100 nM.

`Cc1c(C(=O)NCCC2CCN(CC3CCCCC3)CC2)cnc2cc(-c3cccc(C(F)(F)F)c3)nn12` [19-3]: the Ki fell in the range of 100 to 1000 nM.

On to `Cc1c(C(=O)NCCC2CCN(Cc3ccccc3O)CC2)cnc2cc(-c3ccccc3)nn12` [19-4], for which the Ki fell in the range of 100 to 1000 nM.

Consider `Cc1c(C(=O)NCCC2CCN(Cc3ccncc3)CC2)cnc2cc(-c3cccc(C(F)(F)F)c3)nn12` [19-5], for which the Ki fell in the range of 100 to 1000 nM.

With `Cc1c(C(=O)NCCC2CCN(Cc3ccccn3)CC2)cnc2cc(-c3cccc(C(F)(F)F)c3)nn12` [19-6], the Ki is 100 to 1000 nM.

Consider `COc1cccc(CN2CCC(CCNC(=O)c3cnc4cc(-c5ccccc5)nn4c3C)CC2)c1` [19-7], for which the Ki fell in the range of 100 to 1000 nM.

With `Cc1c(C(=O)NCCC2CCN(Cc3ccc(O)cc3)CC2)cnc2cc(-c3ccccc3)nn12` [19-8], the Ki fell in the range of 100 to 1000 nM.

In the case of `C[C@H]1CN(c2ncc(C#N)cn2)CCC1C(=O)NCCC1CCN(Cc2ccccc2)CC1` (stereo partly drawn) [20-1, (3R)-N-[2-(1-benzylpiperidin-4-yl)ethyl]-1-(5-cyanopyrimidin-2-yl)-3-methylpiperidine-4-carboxamide], the Ki lay in the range of 10 to 100 nM.

Take `C[C@@H]1CN(c2ncc(C#N)cn2)C[C@H](C)N1C(=O)NCCC1CCN(CC2CCCCC2)CC1` [21-1, (2R,6S)-4-(5-cyanopyrimidin-2-yl)-N-{2-[1-(cyclohexylmethyl)piperidin-4-yl]ethyl}-2,6-dimethylpiperazine-1-carboxamide]: the Ki was in the range of 10 to 100 nM.

On to `C[C@@H]1CN(c2ncc(C#N)cn2)C[C@H](C)N1C(=O)NCCC1CCN(Cc2ccccn2)CC1` [21-3], for which the Ki was 100 to 1000 nM.

`C[C@@H]1CN(c2ncc(C#N)cn2)C[C@H](C)N1C(=O)NCCC1CCN(C2Cc3ccccc3C2)CC1` [21-4, (2R,6S)-4-(5-cyanopyrimidin-2-yl)-N-{2-[l-(2,3-dihydro-1H-inden-2-yl)piperidin-4-yl]ethyl}-2,6-dimethylpiperazine-1-carboxamide]: the Ki lay in the range of 10 to 100 nM.

In the case of `C[C@@H]1CN(c2ncc(C#N)cn2)C[C@H](C)N1C(=O)NCCC1CCN(CC2CCC2)CC1` [21-5], the inhibition constant Ki is 100 to 1000 nM.

On to `CC(C)CN1CCC(CCNC(=O)N2[C@H](C)CN(c3ncc(C#N)cn3)C[C@@H]2C)CC1` [21-6], for which the Ki was in the range of 100 to 1000 nM.

In the case of `CC(C)CCN1CCC(CCNC(=O)N2[C@H](C)CN(c3ncc(C#N)cn3)C[C@@H]2C)CC1` [21-8], the inhibition constant Ki lay in the range of 100 to 1000 nM.

Regarding `C[C@@H]1CN(c2ncc(C#N)cn2)C[C@H](C)N1C(=O)NCCC1CCN(CC2CCCCO2)CC1` (stereo partly shown) [21-9], the Ki is 100 to 1000 nM.

For the compound `C[C@@H]1CN(c2ncc(C#N)cn2)C[C@H](C)N1C(=O)NCCC1CCN(CC2(C)COC2)CC1` [21-10], the Ki is 100 to 1000 nM.

On to `C[C@@H]1CN(c2ncc(C#N)cn2)C[C@H](C)N1C(=O)NCCC1CCN(CC2CCCS(=O)(=O)C2)CC1` (stereo partly drawn) [21-11, (2R,6S)-4-(5-cyanopyrimidin-2-yl)-N-(2-{1-[(1,1-dioxo-1-thian-3-yl)methyl]piperidin-4-yl}ethyl)-2,6-dimethylpiperazine-1-carboxamide], for which the Ki lay within 100 to 1000 nM.

For the compound `C[C@@H]1CN(c2ncc(C#N)cn2)C[C@H](C)N1C(=O)NCCC1CCN(CC23CC(C2)C3)CC1` [21-12], the Ki is 100 to 1000 nM.

With `C[C@@H]1CN(c2ncc(C#N)cn2)C[C@H](C)N1C(=O)NCCC1CCN(CC23C4C5C6C4C2C6C53)CC1` (stereo partly shown) [21-13], the Ki was in the range of 10 to 100 nM.

On to `C[C@@H]1CN(c2cnc(C(F)(F)F)nc2)C[C@H](C)N1C(=O)NCCC1CCN(Cc2ccccc2)CC1` [22-1, (2R,6S)—N-[2-(1-benzylpiperidin-4-yl)ethyl]-2,6-dimethyl-4-[2-(trifluoromethyl)pyrimidin-5-yl]piperazine-1-carboxamide], for which the Ki was in the range of 10 to 100 nM.

As to `C[C@@H]1CN(c2cc(F)c(F)cc2F)C[C@H](C)N1C(=O)NCCC1CCN(Cc2ccccc2)CC1` [22-6], the inhibition constant Ki lay in the range of 10 to 100 nM.

As for `C[C@@H]1CN(c2ccc(Cl)nc2)CCN1C(=O)NCCC1CCN(Cc2ccccc2)CC1` [22-11], the Ki lay in the range of 10 to 100 nM.

For `COc1cc(N2CCN(C(=O)NCCC3CCN(Cc4ccccc4)CC3)[C@H](C)C2)ccn1` [22-16], the Ki was 10 to 100 nM.

On to `C[C@@H]1CN(c2ccnc(F)c2)CCN1C(=O)NCCC1CCN(Cc2ccccc2)CC1` [22-18], for which the Ki lay within 10 to 100 nM.

Take `C[C@@H]1CN(c2cncnc2)CCN1C(=O)NCCC1CCN(Cc2ccccc2)CC1` [22-19]: the Ki fell in the range of 10 to 100 nM.

For `C[C@@H]1CN(c2ccc(C#N)c(N(C)C)c2)CCN1C(=O)NCCC1CCN(Cc2ccccc2)CC1` [22-26], the Ki lay in the range of 10 to 100 nM.

As to `C[C@@H]1CN(c2cnc(C#N)cn2)CCN1C(=O)NCCC1CCN(Cc2ccccc2)CC1` [22-27], the Ki fell in the range of 10 to 100 nM.

For the compound `COc1cc(N2CCN(C(=O)NCCC3CCN(Cc4ccccc4)CC3)[C@H](C)C2)ccc1C#N` [22-28, (2R)-N-[2-(1-benzylpiperidin-4-yl)ethyl]-4-(4-cyano-3-methoxyphenyl)-2-methylpiperazine-1-carboxamide], the Ki lay within 10 to 100 nM.

Consider `C[C@@H]1CN(c2ccnc(C(F)(F)F)c2)CCN1C(=O)NCCC1CCN(Cc2ccccc2)CC1` [22-29], for which the Ki is 10 to 100 nM.

Take `C[C@@H]1CN(c2cnc(C#N)nc2)C[C@H](C)N1C(=O)NCCC1CCN(Cc2ccccc2)CC1` [23-1, (2S,6R)-N-[2-(1-benzylpiperidin-4-yl)ethyl]-4-(2-cyanopyrimidin-5-yl)-2,6-dimethylpiperazine-1-carboxamide]: the inhibitory constant (Ki) is 100 to 1000 nM.

For `C[C@@H]1CN(c2cnc(C#N)cn2)C[C@H](C)N1C(=O)NCCC1CCN(Cc2ccccc2)CC1` [23-2, (2R,6S)-N-[2-(1-benzylpiperidin-4-yl)ethyl]-4-(5-cyanopyrazin-2-yl)-2,6-dimethylpiperazine-1-carboxamide], the Ki is 10 to 100 nM.

Turning to `C[C@@H]1CN(c2ccc(C#N)nn2)C[C@H](C)N1C(=O)NCCC1CCN(Cc2ccccc2)CC1` [23-3, (2R,6S)-N-[2-(1-benzylpiperidin-4-yl)ethyl]-4-(6-cyanopyridazin-3-yl)-2,6-dimethylpiperazine-1-carboxamide], the Ki was 10 to 100 nM.

For `C[C@H]1CN(c2ncc(C#N)cn2)C[C@H](C)N1C(=O)NCCC1CCN(Cc2ccccc2)CC1` [26-3], the Ki was 100 to 1000 nM.

Consider `C[C@@H]1CN(c2ncc(C(F)(F)F)cn2)C[C@@H](C)N1C(=O)NCCC1CCN(Cc2ccccc2)CC1` [26-5, (2R,6R)-N-[2-(1-benzylpiperidin-4-yl)ethyl]-2,6-dimethyl-4-[5-(trifluoromethyl)pyrimidin-2-yl]piperazine-1-carboxamide], for which the inhibition constant (Ki) was below 10 nM.

Take `C[C@@H]1CN(c2ncc(C(=O)NC3CC3)cn2)C[C@H](C)N1C(=O)NCCC1CCN(Cc2ccccc2)CC1` [27-1, 2-[(3R,5S)-4-{[2-(1-benzylpiperidin-4-yl)ethyl]carbamoyl}-3,5-dimethylpiperazin-1-yl]-N-cyclopropylpyrimidine-5-carboxamide]: the Ki lay in the range of 10 to 100 nM.

In the case of `C[C@@H]1CN(c2ncc(C(=O)N3CCCC3)cn2)C[C@H](C)N1C(=O)NCCC1CCN(Cc2ccccc2)CC1` [27-2], the Ki was 100 to 1000 nM.

In the case of `CC(C)N(C)C(=O)c1cnc(N2C[C@@H](C)N(C(=O)NCCC3CCN(Cc4ccccc4)CC3)[C@@H](C)C2)nc1` [27-3], the Ki was in the range of 100 to 1000 nM.

On to `C=CCNC(=O)c1cnc(N2C[C@@H](C)N(C(=O)NCCC3CCN(Cc4ccccc4)CC3)[C@@H](C)C2)nc1` [27-4], for which the Ki lay within 100 to 1000 nM.

Turning to `C[C@@H]1CN(c2ncc(C(=O)NCC3CC3)cn2)C[C@H](C)N1C(=O)NCCC1CCN(Cc2ccccc2)CC1` [27-5], the Ki was 100 to 1000 nM.

For `C[C@@H]1CN(c2ncc(C(=O)NC3CCC3)cn2)C[C@H](C)N1C(=O)NCCC1CCN(Cc2ccccc2)CC1` [27-6], the Ki lay within 100 to 1000 nM.

Regarding `C[C@@H]1CN(c2ncc(C(=O)NCCF)cn2)C[C@H](C)N1C(=O)NCCC1CCN(Cc2ccccc2)CC1` [27-7], the Ki fell in the range of 100 to 1000 nM.

As to `CCC(C)NC(=O)c1cnc(N2C[C@@H](C)N(C(=O)NCCC3CCN(Cc4ccccc4)CC3)[C@@H](C)C2)nc1` (stereo partly shown) [27-8], the Ki was 100 to 1000 nM.

As to `CCN(C)C(=O)c1cnc(N2CCN(C(=O)NCCC3CCN(Cc4ccccc4)CC3)[C@H](C)C2)nc1` [27-9], the Ki was in the range of 100 to 1000 nM.
